Laboratory results: US9115127B2 (AMGEN INC., priority 2010, dated 2015)

Molecular target: T1, wild-type human ALK (cytoplasmic domain, amino acids 1058-1620, N-terminal GST fusion) (Homo sapiens, UniProt Q9UM73)
T1 construct: The cytoplasmic domain (amino acids 1058-1620) of wild-type human ALK; GST (N); made in house; host or cells: SF9 insect cells
Test: ALK Inhibition in Enzyme Assay (Lance TR-FRET kinase assay)
Format: biochemical
Method in brief: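 Purified enzyme phosphorylated a biotinylated peptide substrate for 90 minutes at room temperature. Reactions were stopped with 20 mM EDTA in 50 mM Tris (pH 7.5), 100 mM NaCl, 0.05% BSA, 0.1% Tween-20. Phosphopeptide was detected by TR-FRET with SA-APC and Eu-W1024 anti-phosphotyrosine antibody PT66, excitation 320 nm.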

T1 sequence (Q9UM73 1058-1620): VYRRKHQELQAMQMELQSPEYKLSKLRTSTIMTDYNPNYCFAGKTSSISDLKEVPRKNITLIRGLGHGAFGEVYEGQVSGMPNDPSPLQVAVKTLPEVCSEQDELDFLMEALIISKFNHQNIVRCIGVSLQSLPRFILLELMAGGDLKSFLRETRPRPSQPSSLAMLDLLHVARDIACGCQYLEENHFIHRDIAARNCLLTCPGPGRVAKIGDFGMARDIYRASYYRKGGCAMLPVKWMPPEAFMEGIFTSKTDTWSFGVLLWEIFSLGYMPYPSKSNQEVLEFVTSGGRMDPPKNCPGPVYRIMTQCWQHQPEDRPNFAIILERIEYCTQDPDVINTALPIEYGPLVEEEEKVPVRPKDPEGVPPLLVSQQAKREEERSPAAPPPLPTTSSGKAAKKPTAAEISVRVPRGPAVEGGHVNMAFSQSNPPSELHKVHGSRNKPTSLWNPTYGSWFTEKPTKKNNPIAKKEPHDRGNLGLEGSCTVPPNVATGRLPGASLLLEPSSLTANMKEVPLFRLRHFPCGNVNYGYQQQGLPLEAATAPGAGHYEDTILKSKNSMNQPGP

Structure (SMILES)	IC50 [nM]
CC(C)NC(=O)[C@H]1CC[C@@H](n2/c(=N/C(=O)c3ccc(Br)cc3)[nH]c3cnc(OCCN4CCCCC4)cc32)CC1 [Example 95, (E)-4-Bromo-N-(1-(cis-4-(isopropylcarbamoyl)cyclohexyl)-6-(2-(piperidin-1-yl)ethoxy)-1H-imidazo[4,5-c]pyridin-2(3H)-ylidene)benzamide]	< 50
CC(C)NC(=O)[C@H]1CC[C@@H](n2/c(=N/C(=O)c3cccnc3)[nH]c3cnc(OCCN4CCCCC4)cc32)CC1 [Example 96, (E)-N-(1-(cis-4-(Isopropylcarbamoyl)cyclohexyl)-6-(2-(piperidin-1-yl)ethoxy)-1H-imidazo[4,5-c]pyridin-2(3H)-ylidene)nicotinamide]	< 50
CC(C)NC(=O)[C@H]1CC[C@@H](n2/c(=N/C(=O)c3ccnnc3)[nH]c3cnc(OCCN4CCCCC4)cc32)CC1 [Example 97, (E)-N-(1-(cis-4-(Isopropylcarbamoyl)cyclohexyl)-6-(2-(piperidin-1-yl)ethoxy)-1H-imidazo[4,5-c]pyridin-2(3H)-ylidene)pyridazine-4-carboxamide]	50 to 100
CC(C)NC(=O)[C@H]1CC[C@@H](n2/c(=N/C(=O)c3cc(F)cc(F)c3)[nH]c3cnc(OCCN4CCCCC4)cc32)CC1 [Example 98, (E)-3,5-Difluoro-N-(1-(cis-4-(isopropylcarbamoyl)cyclohexyl)-6-(2-(piperidin-1-yl)ethoxy)-1H-imidazo[4,5-c]pyridin-2(3H)-ylidene)benzamide]	< 50
C=CCNS(=O)(=O)c1cccc(C(=O)/N=c2\[nH]c3cnc(OCCN4CCCCC4)cc3n2[C@H]2CC[C@@H](C(=O)NC(C)C)CC2)c1 [Example 99, (E)-3-(N-Allylsulfamoyl)-N-(1-(cis-4-(isopropylcarbamoyl)cyclohexyl)-6-(2-(piperidin-1-yl)ethoxy)-1H-imidazo[4,5-c]pyridin-2(3H)-ylidene)benzamide]	100 to 1000
COc1ccc(C(=O)/N=c2\[nH]c3cnc(OCCN4CCCCC4)cc3n2[C@H]2CC[C@@H](C(=O)NC(C)C)CC2)cc1 [Example 100, (E)-N-(1-(cis-4-(Isopropylcarbamoyl)cyclohexyl)-6-(2-(piperidin-1-yl)ethoxy)-1H-imidazo[4,5-c]pyridin-2(3H)-ylidene)-4-methoxybenzamide]	50 to 100
CC(C)NC(=O)[C@H]1CC[C@@H](n2/c(=N/C(=O)c3ccc(F)c(Cl)c3)[nH]c3cnc(OCCN4CCCCC4)cc32)CC1 [Example 101, (E)-3-Chloro-4-fluoro-N-(1-(cis-4-(isopropylcarbamoyl)cyclohexyl)-6-(2-(piperidin-1-yl)ethoxy)-1H-imidazo[4,5-c]pyridin-2(3H)-ylidene)benzamide]	< 50
CC(C)NC(=O)[C@H]1CC[C@@H](n2/c(=N/C(=O)c3ccc(C(F)(F)F)cc3)[nH]c3cnc(OCCN4CCCCC4)cc32)CC1 [Example 102, (E)-N-(1-(cis-4-(Isopropylcarbamoyl)cyclohexyl)-6-(2-(piperidin-1-yl)ethoxy)-1H-imidazo[4,5-c]pyridin-2(3H)-ylidene)-4-(trifluoromethyl)benzamide]	100 to 1000
CC(C)NC(=O)[C@H]1CC[C@@H](n2/c(=N/C(=O)c3ccc(C#N)c(F)c3)[nH]c3cnc(OCCN4CCCCC4)cc32)CC1 [Example 103, (E)-4-Cyano-3-fluoro-N-(1-(cis-4-(isopropylcarbamoyl)cyclohexyl)-6-(2-(piperidin-1-yl)ethoxy)-1H-imidazo[4,5-c]pyridin-2(3H)-ylidene)benzamide]	< 50
CC(C)NC(=O)[C@H]1CC[C@@H](n2/c(=N/C(=O)c3ccc4cc[nH]c4c3)[nH]c3cnc(OCCN4CCCCC4)cc32)CC1 [Example 104, (E)-N-(1-(cis-4-(Isopropylcarbamoyl)cyclohexyl)-6-(2-(piperidin-1-yl)ethoxy)-1H-imidazo[4,5-c]pyridin-2(3H)-ylidene)-1H-indole-6-carboxamide]	100 to 1000
